Measured values: PubChem BioAssay AID1963834 (Molecular Pharmacology Branch, DTP, NCI, 2024)

System: 873145-292-R-J1-PDC complex spheroid viability
Test: Anticancer human tumor 873145-292-R-J1-PDC patient-derived renal clear cell carcinoma cell line growth inhibition [POLQ]
Settings: for IC50: curve of first compound; for viability, T/C: stronger effect = lower value; active means viability on the fitted dose curve at most 10% of control; inactive means the rest
Method: Multicellular complex tumor spheroid response to Polymerase (POL) inhibitors (novobiocin, ART-558, RP6685) in combination with a variety of drugs and investigational agents in selected tumor cell lines
The POL inhibitors (novobiocin, ART-558, and RP6685) were evaluated both individually and in combination with standard of care and investigational anticancer small molecules within a complex spheroid model of solid tumors. . Complex spheroids include a stromal component modeled by human endothelial cells (HUVEC) and fibroblasts modeled by human mesenchymal stem cells (MSCs). The concentration ranges selected for each drug and investigational agent were based upon clinically achievable concentrations if the clinical Cmax of the agent was known.
Compounds. The drugs and investigational agents: novobiocin (NSC847541), ART-558 (NSC835418), RP-6685 (NSC848927), peposertib (NSC802822), ceralasertib (NSC780249), elimusertib (NSC800525), camonsertib (NSC841442), AZD-1390 (NSC803789), olaparib (NSC753686), talazoparib (NSC767125), rucaparib (NSC756644), sotorasib (NSC818433), MRTX-1133 (NSC836407), SN-38 (NSC673596), topotecan (NSC609699), epotoside (NSC141540), doxorubicin (NSC123127), gemcitabine (NSC613327), 5-fluorouracil (NSC19893), paclitaxel (NSC125973), vemurafenib (NSC761431), MSA-2 (NSC828583), SN-011 (NSC837082), adavosertib (NSC754352), prexasertib (NSC758257), carboplatin (NSC241240) and oxaliplatin (NSC266046), were obtained from the National Cancer Institute (NCI) Developmental Therapeutics Program Chemical Repository (21). The FDA-approved anticancer drug set is available from the Developmental Therapeutics Program at https://dtp.cancer.gov/organization/dscb/obtaining/. […] The stock solutions were prepared in dimethyl sulfoxide (DMSO, Sigma-Aldrich, St. Louis, MO, cat. D2650), except for the platinum compounds which were prepared in saline (Quality Biological, Gaithersburg, MD, cat. 114-055-101), at 800-fold the tested concentration and stored at -70 degrees C prior to their use. All drugs and investigational agents were tested over a range starting from a high concentration at or near the clinical Cmax and decreasing in half-log increments. If the clinical Cmax for an agent had not been determined, the highest concentration tested was 10 microM, except for SN-38, which was tested at a high concentration of 1 microM.
Cell Culture. All cells were maintained in an incubator at 37 degrees C and 5% CO2 with 95% humidity. The PDC lines were cultured according to standard operating procedures established by the NCI PDMR (https://pdmr.cancer.gov). Table 3 of the manuscript, lists the cell lines along with the number of the three cell types plated to form the mct-spheroids and media for tumor cell growth. After thawing, all PDC lines, except 997537-175-T-J1-PDC and 415267-285-R-J2-PDC, were cultured in Matrigel-coated flasks prepared with a working solution of 1X Ham's F-12 nutrient mix, without supplementation (Thermo Fisher Scientific, cat. 11765054), 100 U/mL penicillin-streptomycin (Thermo Fisher Scientific, cat. 15140122), and 2.5% Matrigel (Corning Inc., Corning, NY, cat. 354248) for the first three passages. The two PDC lines 997537-175-T-J1-PDC and 415267-285-R-J2-PDC were cultured on uncoated flasks. The 857933-349-R-J2-PDC line was cultured in 6C/Colon 1B media containing advanced DMEM/F-12 (Thermo Fisher Scientific, cat. 12634028), 10 mM HEPES (Thermo Fisher Scientific, cat. 15630080), 1X GlutaMAX supplement (Thermo Fisher Scientific, cat. 35050061), 0.1 mg/mL primocin (InvivoGen, San Diego, CA, cat. ant-pm-2), 10% defined fetal bovine serum, heat inactivated (HyClone Laboratories Inc., Logan, UT, cat. SH30070.03HI), 50% L-WRN conditioned media (ATCC, cat. CRL-3276), 1.25 mM N-Acetyl-L-cysteine (Sigma-Aldrich, cat. A9165), 10 mM nicotinamide (Sigma-Aldrich, cat. N0636), 1X B-27 supplement (Thermo Fisher Scientific, cat. 17504044), 1X N-2 supplement (Thermo Fisher Scientific, cat. […]

[1] = second compound 0.0316 µM, first compound 0.0316 µM
[2] = second compound 0.0316 µM, first compound 0.1 µM
[3] = second compound 0.0316 µM, first compound 0.316 µM
[4] = second compound 0.0316 µM, first compound 1 µM
[5] = second compound 0.0316 µM, first compound 3.16 µM
[6] = second compound 0.0316 µM, first compound 10 µM
[7] = second compound 0.1 µM, first compound 0.0316 µM
[8] = second compound 0.1 µM, first compound 0.1 µM
[9] = second compound 0.1 µM, first compound 0.316 µM
[10] = second compound 0.1 µM, first compound 1 µM
[11] = second compound 0.1 µM, first compound 3.16 µM
[12] = second compound 0.1 µM, first compound 10 µM
[13] = second compound 0.316 µM, first compound 0.0316 µM
[14] = second compound 0.316 µM, first compound 0.1 µM
[15] = second compound 0.316 µM, first compound 0.316 µM
[16] = second compound 0.316 µM, first compound 1 µM
[17] = second compound 0.316 µM, first compound 3.16 µM
[18] = second compound 0.316 µM, first compound 10 µM
[19] = second compound 1 µM, first compound 0.0316 µM
[20] = second compound 1 µM, first compound 0.1 µM
[21] = second compound 1 µM, first compound 0.316 µM
[22] = second compound 1 µM, first compound 1 µM
[23] = second compound 1 µM, first compound 3.16 µM
[24] = second compound 1 µM, first compound 10 µM
[25] = second compound 3.16 µM, first compound 0.0316 µM
[26] = second compound 3.16 µM, first compound 0.1 µM
[27] = second compound 3.16 µM, first compound 0.316 µM
[28] = second compound 3.16 µM, first compound 1 µM
[29] = second compound 3.16 µM, first compound 3.16 µM
[30] = second compound 3.16 µM, first compound 10 µM
[31] = second compound 10 µM, first compound 0.0316 µM
[32] = second compound 10 µM, first compound 0.1 µM
[33] = second compound 10 µM, first compound 0.316 µM
[34] = second compound 10 µM, first compound 1 µM
[35] = second compound 10 µM, first compound 3.16 µM
[36] = second compound 10 µM, first compound 10 µM
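Further: spheroids exposed to compounds for 7 days before viability readout.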
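Wherever viability, T/C is given: luminescence signal used as surrogate for viable cell content.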

O=C(c1cc(Cc2n[nH]c(=O)c3ccccc23)ccc1F)N1CCN(C(=O)C2CC2)CC1 + Nc1ccc(C#CCN(C(=O)Cc2ncc(C(F)(F)F)cc2C(F)(F)F)c2ccc(F)cc2)nn1
inactive: viability, T/C [1] 98.5% | viability, T/C [2] 110% | viability, T/C [3] 101% | viability, T/C [4] 106% | viability, T/C [5] 107% | viability, T/C [6] 108% | viability, T/C [7] 112% | viability, T/C [8] 118% | viability, T/C [9] 103% | viability, T/C [10] 102% | viability, T/C [11] 98.1% | viability, T/C [12] 96.2% | viability, T/C [13] 96.4% | viability, T/C [14] 114% | viability, T/C [15] 114% | viability, T/C [16] 105% | viability, T/C [17] 93.8% | viability, T/C [18] 103% | viability, T/C [19] 98.4% | viability, T/C [20] 105% | viability, T/C [21] 114% | viability, T/C [22] 117% | viability, T/C [23] 104% | viability, T/C [24] 88.6% | viability, T/C [25] 104% | viability, T/C [26] 114% | viability, T/C [27] 115% | viability, T/C [28] 110% | viability, T/C [29] 96.2% | viability, T/C [30] 104% | viability, T/C [31] 101% | viability, T/C [32] 105% | viability, T/C [33] 106% | viability, T/C [34] 109% | viability, T/C [35] 100% | viability, T/C [36] 101%
> 10 µM: IC50 (second compound 0.0316 µM) | IC50 (second compound 0.1 µM) | IC50 (second compound 0.316 µM) | IC50 (second compound 1 µM) | IC50 (second compound 3.16 µM) | IC50 (second compound 10 µM)

CC1COCCN1c1cc(C2(S(C)(=N)=O)CC2)nc(-c2ccnc3[nH]ccc23)n1 (stereo unspecified) + COC1C(OC(N)=O)C(O)C(Oc2ccc3c(O)c(NC(=O)c4ccc(O)c(CC=C(C)C)c4)c(=O)oc3c2C)OC1(C)C
inactive: viability, T/C [1] 98.8% | viability, T/C [2] 101% | viability, T/C [3] 88.6% | viability, T/C [4] 88.3% | viability, T/C [5] 86.4% | viability, T/C [6] 67.8% | viability, T/C [7] 105% | viability, T/C [8] 94.7% | viability, T/C [9] 90.8% | viability, T/C [10] 90.1% | viability, T/C [11] 81.3% | viability, T/C [12] 58.5% | viability, T/C [13] 102% | viability, T/C [14] 95.6% | viability, T/C [15] 90% | viability, T/C [16] 82.7% | viability, T/C [17] 80.3% | viability, T/C [18] 55.8% | viability, T/C [19] 100% | viability, T/C [20] 90.2% | viability, T/C [21] 96.7% | viability, T/C [22] 95.6% | viability, T/C [23] 85.6% | viability, T/C [24] 61.5% | viability, T/C [25] 100% | viability, T/C [26] 90.1% | viability, T/C [27] 103% | viability, T/C [28] 82.7% | viability, T/C [29] 82.6% | viability, T/C [30] 62.2% | viability, T/C [31] 95.1% | viability, T/C [32] 92.9% | viability, T/C [33] 95.6% | viability, T/C [34] 81.1% | viability, T/C [35] 74.8% | viability, T/C [36] 64.6%
> 10 µM: IC50 (second compound 0.0316 µM) | IC50 (second compound 0.1 µM) | IC50 (second compound 0.316 µM) | IC50 (second compound 1 µM) | IC50 (second compound 3.16 µM) | IC50 (second compound 10 µM)

O=C(Nc1ccc(O)c(NS(=O)(=O)c2ccc(F)cc2)c1)c1ccc(-c2ccccc2)cc1 + Cc1cccc(N(C)C(=O)C2C(O)CCN2c2nc(C)cc(C(F)(F)F)c2C#N)c1
inactive: viability, T/C [1] 110% | viability, T/C [2] 98.5% | viability, T/C [3] 105% | viability, T/C [4] 91.6% | viability, T/C [5] 95% | viability, T/C [6] 110% | viability, T/C [7] 107% | viability, T/C [8] 112% | viability, T/C [9] 91.7% | viability, T/C [10] 96% | viability, T/C [11] 105% | viability, T/C [12] 88.6% | viability, T/C [13] 106% | viability, T/C [14] 103% | viability, T/C [15] 91.3% | viability, T/C [16] 92.8% | viability, T/C [17] 112% | viability, T/C [18] 102% | viability, T/C [19] 106% | viability, T/C [20] 109% | viability, T/C [21] 111% | viability, T/C [22] 93.2% | viability, T/C [23] 103% | viability, T/C [24] 104% | viability, T/C [25] 94.9% | viability, T/C [26] 105% | viability, T/C [27] 104% | viability, T/C [28] 99.3% | viability, T/C [29] 99.3% | viability, T/C [30] 95.5% | viability, T/C [31] 96.9% | viability, T/C [32] 107% | viability, T/C [33] 100% | viability, T/C [34] 93.9% | viability, T/C [35] 111% | viability, T/C [36] 102%
> 10 µM: IC50 (second compound 0.0316 µM) | IC50 (second compound 0.1 µM) | IC50 (second compound 0.316 µM) | IC50 (second compound 1 µM) | IC50 (second compound 3.16 µM) | IC50 (second compound 10 µM)
